≈ marks a conversion by molar mass, not a printed value.
Columns and labels:
Vero = test: Cytotoxicity against african green monkey Vero cells after 72 hrs by MTT assay; format: cell-based; settings: Chlorocebus sabaeus
[1] = test system: Mycobacterium tuberculosis; test: Antimycobacterial activity against Mycobacterium tuberculosis H37Rv by agar dilution method; format: functional

SMILES	IC50 (Vero) [µg/mL]	MIC90 [1] [µM]
COc1cc2c(cc1OC)C(=O)[C@]1(C2)[C@@H](c2ccccc2)[C@@H]2CSCN2[C@@]12C(=O)Nc1ccc(OC(F)(F)F)cc12	> 62.5	> 6.25
COc1cc2c(cc1OC)C(=O)[C@]1(C2)[C@@H](c2ccccc2Cl)[C@@H]2CSCN2[C@@]12C(=O)Nc1ccc(OC(F)(F)F)cc12	> 62.5	11.4 (≈ 7.04 µg/mL)
COc1cc2c(cc1OC)C(=O)[C@]1(C2)[C@@H](c2ccc(F)cc2)[C@@H]2CSCN2[C@@]12C(=O)N(N1CCOCC1)c1ccccc12	> 62.5	8.12 (≈ 4.89 µg/mL)
COc1ccc([C@H]2[C@@H]3CSCN3[C@@]3(C(=O)N(N4CCOCC4)c4ccccc43)[C@@]23Cc2cc(OC)c(OC)cc2C3=O)cc1OC	> 62.5	21.2 (≈ 13.6 µg/mL)
COc1cc2c(cc1OC)C(=O)[C@]1(C2)[C@@H](c2ccccc2)[C@@H]2CSCN2[C@@]12C(=O)N(N1CCOCC1)c1ccccc12	> 62.5	> 6.25
COc1cc2c(cc1OC)C(=O)[C@]1(C2)[C@@H](c2ccccc2Cl)[C@@H]2CSCN2[C@@]12C(=O)N(N1CCOCC1)c1ccccc12	> 62.5	6.29 (≈ 3.89 µg/mL)
COc1cc2c(cc1OC)C(=O)[C@]1(C2)[C@@H](c2ccc(F)cc2)[C@@H]2CSCN2[C@@]12C(=O)Nc1ccc(OC(F)(F)F)cc12	> 62.5	0.72 (≈ 0.432 µg/mL)
COc1ccc([C@H]2[C@@H]3CSCN3[C@@]3(C(=O)Nc4ccc(OC(F)(F)F)cc43)[C@@]23Cc2cc(OC)c(OC)cc2C3=O)cc1OC	> 62.5	12.2 (≈ 7.85 µg/mL)
NNC(=O)c1ccncc1 [ISONIAZID]	> 62.5	0.73 (≈ 0.1 µg/mL)

Reference: ChEMBL document CHEMBL2203242, “A regio- and stereoselective 1,3-dipolar cycloaddition for the synthesis of new-fangled dispiropyrrolothiazoles as antimycobacterial agents” (Bioorg Med Chem Lett, 2012)
